One data set has as its system A549. In words: Cell viability determination (MTT), A549. It is filed as cell-based. The settings on record: Homo sapiens, A549, lung cancer, 48 hour incubation, read-out: Drug concentrations for 50% cell viability (IC50). An excerpt: (§1) Cell Culture: A549, DLD1, SW480, LOVO, HT-29, Hela, U-20S, MES-SA, SK-MEL-28, Panc-1, DU-145, CNE, U251, Eca-109, MGC80-3, QGY-7701, BEL-7404, PLC/PRF/5, Huh-7, and SGC-7901 cells were maintained in Dulbecco's Modified Eagle Medium (DMEM) (imported from Invitrogen, Carlsbad, Calif., USA) supplemented with 10% fetal bovine serum (FBS) (Si Ji Qing, Hangzhou, China) and 1% penicillin/streptomycin/amphotericin B (imported from Invitrogen, Carlsbad, Calif., USA).
(§2) Cell Viability Determination: Popular MTT method (Archives of Biochemistry and Biophysics, 1993, 303: 474-482) was used to screen the in vitro effects of the invented drugs. Briefly, 5000 to 10000 cells were inoculated per well in a 96-well plate. After overnight incubation, drug was added to the wells at final concentration of 10 μM, […], 2.5 μM, 1.25 μM, or 1 μM, 0.75 μM, 0.5 μM and 0.25 μM in complete culture medium. Each dose level covered 4 equivalent wells. After 48 hour incubation, one tenth volume of 5 mg/mL MTT (thiazolyl blue tetrazolium bromide, Sigma-Aldrich) stock solution was added, and incubation was continued for 2 hours. Then medium was removed and 100 μL of isopropanol solution comprising 86% isopropanol, 4% aqueous 1 N HCl and 10% aqueous SDS solution (10% in concentration) was added. The absorbance of each well at 570 nm wavelength was measured by a micro-plate reader after gentle shaking for 20 minutes. Drug concentrations of 50% cell viability (IC50) were calculated by LOGIT method.

The next data set has as its system LOVO. In words: Cell viability determination (MTT), LOVO. Format: cell-based. As to conditions: Homo sapiens, colorectal cancer, 48 hour incubation, read-out: Drug concentrations for 50% cell viability (IC50).
Text: as §1, §2

The next data set has as its system DU-145. The data set is described as follows: Cell viability determination (MTT), DU-145. It is filed as cell-based. As to conditions: Homo sapiens, DU-145, prostate cancer, 48 hour incubation, read-out: Drug concentrations for 50% cell viability (IC50).
Text: as §1, §2

The next data set concerns CNE. The data set is described as follows: Cell viability determination (MTT), CNE. Format: cell-based. The settings on record: Homo sapiens, nasopharyngeal cancer, 48 hour incubation, read-out: Drug concentrations for 50% cell viability (IC50).
Text: as §1, §2

A further data set concerns U251. In words: Cell viability determination (MTT), U251. Format: cell-based. As to conditions: Homo sapiens, U-251, U251, glioma, 48 hour incubation, read-out: Drug concentrations for 50% cell viability (IC50).
Text: as §1, §2

Data set [1] can be described thus: Human plasma incubation, HPLC analysis of degradation products. The settings on record: 20 μM in human plasma, 37° C., 2 hours. It is filed as in vitro ADME. As to the method:
The compounds of formula I were incubated in human plasma at 37° C. for 2 hours, and then the mixtures were treated with acetonitrile to remove protein and the resulting supernatants were analyzed by HPLC (FIG. 2). […] Without wishing to be bound by a particular theory, it is believed that, although not detected due to instability in a protein-free environment, the direct hydrolysis product of a compound of formula I, 4,9-dihydroxy-naphtho[2,3-b]furan, and its partially oxidized product semihydroquinone (shown in scheme 6) co-exist in vivo and play important biological roles.
HPLC column: Waters Sunfire C18, 250×4.60 mm 5 micron; Mobile phase: buffer A, 90% 5 mM potassium phosphate buffer, pH 6.8, 10% acetonitrile; buffer B, 15% 5 mM potassium phosphate buffer, pH 6.8, 85% acetonitrile; Detector: Waters 2998 Photodiode Array Detector.
Gradient B: 0-3 min, 50% buffer B, 3-5 min, 50%-100% buffer B, 5-18 min, 100% buffer B, 18-22 min, 100%-50% buffer B, 22-25 min, […]; flow rate, 1 ml/min. Analysis of the 4,9-dihydroxy-naphtho[2,3-b]furan compounds (FIG. 1)
10 mM of a compound of formula I or its analog in DMSO (however, compound VI was in DMF) was diluted with human plasma to 20 μM, and the resulting mixtures were incubated at 37° C. for 2 hours. To plasma sample, 9 times volume of acetonitrile was added. The resulting mixtures were vortexed and incubated in dry ice for 30 minutes or in −20° C. freezer for 3 hours, then centrifuged, and supernatant was used for HPLC analysis using gradient B.

SMILES strings stand for the structures.

On to `CC(=O)Oc1c2ccccc2c(OC(=O)CNC(=O)OC(C)(C)C)c2oc(C(C)=O)cc12` [compound IV, 2-acetyl-4-acetoxy-9-[(tert-butoxycarbonyl)amino]acetoxy-naphtho[2,3-b]furan], for which the IC50 with A549 was 600 nM; with LOVO it was 1930 nM; in the data set on DU-145, 250 to 500 nM; with CNE, 1330 nM; in the data set with U251 it was 1140 nM. The “Degradation / detectable products after incubation in human plasma” value in data set [1] is “the detectable products were compound XIII and partially degraded products”.

The values above are taken from patent US9150530B2, “Esters of 4, 9-dihydroxy-naphtho [2, 3-b] furans for disease therapies” (Zhoushan Haizhongzhou Xinsheng Pharmaceuticals Co., Ltd., priority 2011, dated 2015).
